For 19 molecules, IC50 results are on record in patent US20210300940A1 (Merck Patent GmbH, priority 2018, published 2021).

pIC50: −log10 of the molar value.

One assay concerns the target T1, TLR7 (Homo sapiens, UniProt Q9NYK1).
T1 construct: expressed in transfected cells; host or cells: HEK/293 cells carrying TLR7 and an NF-kB luciferase reporter
T1 sequence (Q9NYK1 27-1049): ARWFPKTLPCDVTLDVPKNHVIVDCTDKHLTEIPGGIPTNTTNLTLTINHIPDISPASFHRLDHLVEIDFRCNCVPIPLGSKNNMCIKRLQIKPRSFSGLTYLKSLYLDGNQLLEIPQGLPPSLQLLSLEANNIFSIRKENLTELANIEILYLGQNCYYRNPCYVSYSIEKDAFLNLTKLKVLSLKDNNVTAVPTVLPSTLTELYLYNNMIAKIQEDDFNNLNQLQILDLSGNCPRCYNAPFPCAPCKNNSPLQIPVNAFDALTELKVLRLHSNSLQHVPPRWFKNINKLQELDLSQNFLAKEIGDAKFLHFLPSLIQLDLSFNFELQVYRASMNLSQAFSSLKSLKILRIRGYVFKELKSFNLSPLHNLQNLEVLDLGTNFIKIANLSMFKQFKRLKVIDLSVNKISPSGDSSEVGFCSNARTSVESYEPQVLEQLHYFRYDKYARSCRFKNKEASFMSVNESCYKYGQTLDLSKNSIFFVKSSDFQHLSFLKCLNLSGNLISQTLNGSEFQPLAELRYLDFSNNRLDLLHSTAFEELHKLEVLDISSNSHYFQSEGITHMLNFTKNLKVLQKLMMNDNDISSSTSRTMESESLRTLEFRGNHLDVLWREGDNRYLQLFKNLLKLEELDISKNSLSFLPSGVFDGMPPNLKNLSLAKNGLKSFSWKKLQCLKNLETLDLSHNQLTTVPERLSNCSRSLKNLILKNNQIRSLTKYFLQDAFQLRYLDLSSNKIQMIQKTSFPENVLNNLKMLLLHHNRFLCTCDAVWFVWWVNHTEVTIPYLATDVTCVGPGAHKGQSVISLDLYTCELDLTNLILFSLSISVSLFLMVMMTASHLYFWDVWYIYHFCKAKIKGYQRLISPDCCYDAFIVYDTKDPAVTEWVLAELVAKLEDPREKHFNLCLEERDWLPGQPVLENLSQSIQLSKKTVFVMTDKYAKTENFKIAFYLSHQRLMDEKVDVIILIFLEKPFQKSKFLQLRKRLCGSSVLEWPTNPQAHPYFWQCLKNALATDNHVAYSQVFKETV
Nature of the assay: HEK/293 TLR7 Cell Assay. The following applies: TLR7/NFKb HEK cells, R848 agonist 10 uM final concentration, Steady-Glo readout; read-out: TLR7 potency. It is filed as cell-based. In a few lines: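 Compounds added to HEK cells expressing TLR7 with an NFκB reporter 30 min ahead of 10 uM R848 challenge; luciferase signal (Steady-Glo) measured after 5 h, cells having been seeded 24 h earlier at 5000 per well.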

The target in the next assay is T2, TLR8 (Homo sapiens, UniProt Q9NR97).
T2 construct: expressed in transfected cells; host or cells: HEK/293 reporter cells (NF-kB luciferase)
T2 sequence (Q9NR97 27-1041): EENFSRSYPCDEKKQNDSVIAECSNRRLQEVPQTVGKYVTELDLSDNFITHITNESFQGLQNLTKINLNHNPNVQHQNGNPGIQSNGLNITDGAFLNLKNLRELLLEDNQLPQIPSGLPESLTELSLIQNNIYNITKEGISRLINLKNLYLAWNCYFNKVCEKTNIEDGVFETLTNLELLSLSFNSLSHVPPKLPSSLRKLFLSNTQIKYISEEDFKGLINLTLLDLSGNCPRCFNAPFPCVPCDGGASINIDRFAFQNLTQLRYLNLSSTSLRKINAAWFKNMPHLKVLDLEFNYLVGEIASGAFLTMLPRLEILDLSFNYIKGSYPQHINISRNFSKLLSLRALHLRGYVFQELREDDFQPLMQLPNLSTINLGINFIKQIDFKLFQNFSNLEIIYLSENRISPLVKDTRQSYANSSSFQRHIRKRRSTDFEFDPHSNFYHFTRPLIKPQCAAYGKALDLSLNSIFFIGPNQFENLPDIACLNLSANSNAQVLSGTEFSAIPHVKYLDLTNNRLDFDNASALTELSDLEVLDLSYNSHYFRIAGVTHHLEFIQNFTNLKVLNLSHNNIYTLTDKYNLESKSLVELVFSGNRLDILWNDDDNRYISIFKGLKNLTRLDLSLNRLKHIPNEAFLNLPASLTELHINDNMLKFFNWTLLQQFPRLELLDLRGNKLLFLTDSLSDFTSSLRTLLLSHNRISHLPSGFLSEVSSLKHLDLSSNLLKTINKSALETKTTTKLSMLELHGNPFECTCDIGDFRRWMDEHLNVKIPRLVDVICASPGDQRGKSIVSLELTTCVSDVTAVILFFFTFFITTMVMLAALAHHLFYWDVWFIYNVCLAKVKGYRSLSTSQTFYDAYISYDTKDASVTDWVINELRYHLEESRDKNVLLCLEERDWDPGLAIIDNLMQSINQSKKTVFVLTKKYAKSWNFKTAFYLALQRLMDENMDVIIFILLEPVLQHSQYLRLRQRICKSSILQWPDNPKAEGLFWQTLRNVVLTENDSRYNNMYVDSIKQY
Description: HEK/293 TLR8 Cell Assay. The format is cell-based. The following applies: HEK cells, R848 agonist 30 uM final concentration, Steady-Glo readout; read-out: TLR8 potency.

For the molecule `C[C@H]1C[C@@H](NC(=O)CCC2CCN(C)CC2)CN(c2ccc(C#N)c3ncncc23)C1` [Example 191, N-[(3R,5S)-1-(8-Cyano-quinazolin-5-yl)-5-methyl-piperidin-3-yl]-3-(1-methyl-piperidin-4-yl)-propionamide], the pIC50 at TLR7 and on TLR8 was 6.82 to 7.12 each time.

Take `C[C@H]1C[C@@H](NC(=O)CC2(F)CCN(C)CC2)CN(c2ccc(C#N)c3nccnc23)C1` [Example 192, N-[(3R,5S)-1-(8-Cyano-quinoxalin-5-yl)-5-methyl-piperidin-3-yl]-2-(4-fluoro-1-methyl-piperidin-4-yl)-acetamide]: the pIC50 on TLR7 and on TLR8 was > 7.12 each time.

For `C[C@H]1C[C@@H](NC(=O)CCn2ccnc2)CN(c2ccc(C#N)c3nccnc23)C1` [Example 193, N-[(3R,5S)-1-(8-Cyano-quinoxalin-5-yl)-5-methyl-piperidin-3-yl]-3-imidazol-1-yl-propionamide], the pIC50 on TLR7 and on TLR8 was > 7.12 in each case.

On to `C[C@H]1C[C@@H](NC(=O)CCN2CCOCC2)CN(c2ccc(C#N)c3nccnc23)C1` [Example 194, N-[(3R,5S)-1-(8-Cyano-quinoxalin-5-yl)-5-methyl-piperidin-3-yl]-3-morpholin-4-yl-propionamide], for which the pIC50 at TLR7 was 6.82 to 7.12; at TLR8, > 7.12.

With `C[C@H]1C[C@@H](NC(=O)CCS(=O)(=O)N(C)C)CN(c2ccc(C#N)c3nccnc23)C1` [Example 195, N-[(3R,5S)-1-(8-Cyano-quinoxalin-5-yl)-5-methyl-piperidin-3-yl]-3-dimethylsulfamoyl-propionamide], the pIC50 on TLR7 and on TLR8 was 6.82 to 7.12 each time.

In the case of `CC(C)[C@H](O)C(=O)N[C@@H]1C[C@H](C)CN(c2cnc(C#N)c3nccnc23)C1` [Example 196, (S)—N-[(3R,5S)-1-(5-Cyano-pyrido[3,4-b]pyrazin-8-yl)-5-methyl-piperidin-3-yl]-2-hydroxy-3-methyl-butyramide], the pIC50 at TLR7 is < 6.82; on TLR8 it was > 7.12.

Take `COc1ncc(N2C[C@@H](C)C[C@@H](N)C2)c2nccnc12` [Example 199, (3R,5S)-1-(5-Methoxy-pyrido[3,4-b]pyrazin-8-yl)-5-methyl-piperidin-3-ylamine]: the values for the pIC50 on TLR7 and at TLR8 were 6.82 to 7.12 and > 7.12, respectively.

Turning to `C[C@H]1C[C@@H](NS(=O)(=O)NC2CCN(C)CC2)CN(c2ccc(C(F)(F)F)c3ncccc23)C1` [Example 200, N-(1-methylpiperidin-4-yl){[(3R,5S)-5-methyl-1-[8-(trifluoromethyl)quinolin-5-yl]piperidin-3-yl]amino}sulfonamide], the pIC50 at TLR7 and on TLR8 was > 7.12 each time.

As for `C[C@H]1C[C@@H](NS(=O)(=O)NCCC2CCN(C)CC2)CN(c2ccc(C(F)(F)F)c3ncccc23)C1` [Example 201, N-[2-(1-methylpiperidin-4-yl)ethyl]{[(3R,5S)-5-methyl-1-[8-(trifluoromethyl)quinolin-5-yl]piperidin-3-yl]amino}sulfonamide], the pIC50 on TLR7 and at TLR8 was > 7.12 in each case.

As to `C[C@H]1C[C@@H](NS(=O)(=O)NC(=O)CC2CCN(C)CC2)CN(c2ccc(C(F)(F)F)c3ncccc23)C1` [Example 202, N-{[(3R,5S)-5-methyl-1-[8-(trifluoromethyl)quinolin-5-yl]piperidin-3-yl]sulfamoyl}-2-(1-methylpiperidin-4-yl)acetamide], the pIC50 at TLR7 was 6.82 to 7.12; on TLR8 it was > 7.12.

As for `C[C@H]1C[C@@H](NS(=O)(=O)NC(=O)CN2CCOCC2)CN(c2ccc(C(F)(F)F)c3ncccc23)C1` [Example 203, N-{[(3R,5S)-5-methyl-1-[8-(trifluoromethyl)quinolin-5-yl]piperidin-3-yl]sulfamoyl}-2-(morpholin-4-yl)acetamide], the values for the pIC50 on TLR7 and at TLR8 were 6.82 to 7.12 and > 7.12, respectively.

Regarding `C[C@H]1C[C@@H](NC(=O)[C@@H]2CCNC2)CN(c2ccc(C(F)(F)F)c3ncccc23)C1` [Example 204, (3R)—N-[(3R,5S)-5-methyl-1-[8-(trifluoromethyl)quinolin-5-yl]piperidin-3-yl]pyrrolidine-3-carboxamide], the pIC50 on TLR7 and on TLR8 was > 7.12 in each case.

In the case of `C[C@H]1C[C@@H](NC(=O)C2(F)CCNC2)CN(c2ccc(C(F)(F)F)c3ncccc23)C1` (stereo partly drawn) [Example 205, 3-fluoro-N-[(3R,5S)-5-methyl-1-[8-(trifluoromethyl)quinolin-5-yl]piperidin-3-yl]pyrrolidine-3-carboxamide], the pIC50 on TLR7 and at TLR8 was > 7.12 in each case.

With `N#Cc1ccc(N2C[C@H](NC(=O)C3(F)CCNC3)C[C@H](C(F)(F)F)C2)c2cccnc12` (stereo partly drawn) [Example 206, N-[(3R,5S)-1-(8-cyanoquinolin-5-yl)-5-(trifluoromethyl)piperidin-3-yl]-3-fluoropyrrolidine-3-carboxamide], the pIC50 at TLR7 and at TLR8 was 6.82 to 7.12 in each case.

For `C[C@H]1C[C@@H](NC(=O)CC2CS(=O)(=O)C2)CN(c2ccc(C#N)c3nccnc23)C1` [Example 207, N-[(3R,5S)-1-(8-cyanoquinoxalin-5-yl)-5-methylpiperidin-3-yl]-2-(1,1-dioxo-1λ^6-thietan-3-yl)acetamide], the values for the pIC50 at TLR7 and on TLR8 were < 6.82 and 6.82 to 7.12, respectively.

As to `C[C@H]1C[C@@H](NC(=O)[C@@H]2COCCN2)CN(c2ccc(C#N)c3nccnc23)C1` [Example 208, (3S)—N-[(3R,5S)-1-(8-cyanoquinoxalin-5-yl)-5-methylpiperidin-3-yl]morpholine-3-carboxamide], the pIC50 at TLR7 is 6.82 to 7.12; on TLR8, > 7.12.

On to `C[C@H]1C[C@@H](NC(=O)[C@H]2COCCN2)CN(c2ccc(C#N)c3nccnc23)C1` [Example 209, (3R)—N-[(3R,5S)-1-(8-cyanoquinoxalin-5-yl)-5-methylpiperidin-3-yl]morpholine-3-carboxamide], for which the figures for the pIC50 on TLR7 and on TLR8 were 6.82 to 7.12 and > 7.12, respectively.

With `C[C@H]1C[C@@H](NC(=O)C[C@H](O)CN(C)C)CN(c2ccc(C#N)c3nccnc23)C1` [Example 210, (3S)—N-[(3R,5S)-1-(8-cyanoquinoxalin-5-yl)-5-methylpiperidin-3-yl]-4-(dimethylamino)-3-hydroxybutanamide], the pIC50 at TLR7 and at TLR8 was > 7.12 in each case.

In the case of `C[C@H]1C[C@@H](NC(=O)C[C@@H](O)CN(C)C)CN(c2ccc(C#N)c3nccnc23)C1` [Example 211, (3R)—N-[(3R,5S)-1-(8-cyanoquinoxalin-5-yl)-5-methylpiperidin-3-yl]-4-(dimethylamino)-3-hydroxybutanamide], the pIC50 at TLR7 and on TLR8 was > 7.12 in each case.
